# Like-named read-outs stand apart in the source and are kept apart here.
# Tests used:
# 5-HT6 receptor [1] = target: T1, 5-HT6 receptor (Homo sapiens, UniProt P50406); assay: In vitro affinity for human 5-HT6 receptors, [3H]-LSD binding in CHO cell membranes; design: host or cells: CHO/Gα16/mtAEQ/h5HT6-A1 (CHO AequoScreen recombinant cell line)
# 5-HT6 receptor [2] = target: T1, 5-HT6 receptor; assay: In vitro functional activity (antagonism) on human 5-HT6 receptors, CHO-human-5HT6-Aequorin assay; assay type: cell-based; design: host or cells: CHO/Gα16/mtAEQ/h5HT6-A1 (CHO AequoScreen recombinant cell line)
# [3] = [3H]-LSD 5.0 nM, membranes of CHO cells transfected with human 5-HT6, read-out: 5-HT6 pKi (converted)
# [4] = antagonism of 10^-8 M α-methylserotonin induced luminescence, CHO-human-5HT6-Aequorin cells, read-out: 5-HT6 pA2 (converted)
# [5] = antagonism of 10^-8 M α-methylserotonin induced luminescence, CHO-human-5HT6-Aequorin cells
# T1 sequence (P50406 whole entry): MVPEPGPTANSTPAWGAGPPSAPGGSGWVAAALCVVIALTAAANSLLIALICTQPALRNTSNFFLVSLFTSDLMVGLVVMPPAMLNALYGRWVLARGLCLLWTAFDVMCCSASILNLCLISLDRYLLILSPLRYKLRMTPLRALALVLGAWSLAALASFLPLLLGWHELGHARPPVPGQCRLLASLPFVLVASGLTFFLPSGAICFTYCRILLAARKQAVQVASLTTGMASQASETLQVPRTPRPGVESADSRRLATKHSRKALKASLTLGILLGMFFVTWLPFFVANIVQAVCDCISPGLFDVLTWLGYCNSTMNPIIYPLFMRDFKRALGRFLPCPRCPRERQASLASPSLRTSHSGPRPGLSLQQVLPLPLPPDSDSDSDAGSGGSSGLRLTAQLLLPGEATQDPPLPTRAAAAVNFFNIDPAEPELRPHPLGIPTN
Compound,Ki (5-HT6 receptor [1]; [3]),Kb (5-HT6 receptor [2]; [4]),melting point,also measured
CCN/C(=N\S(=O)(=O)c1cccc(Cl)c1)N1CC(CCC(F)(F)F)(CCC(F)(F)F)C=N1 [compound 168],316 nM,,,
CCN/C(=N\S(=O)(=O)c1cccc(Cl)c1)N1N=CCC1c1ccoc1 (stereo not drawn) [compound 146],20 nM,39.8 nM,,
"CCN/C(=N\S(=O)(=O)c1cccc(Cl)c1)N1N=CC(CC)C1c1ccccc1 (single isomer, unassigned) [trans-(−)-153]",398 nM,,,
CCC1C=NN(/C(N)=N/S(=O)(=O)c2ccc(C)cc2)C1 (stereo not drawn) [compound 31],,,131 to 133 °C,
"CCN/C(=N\S(=O)(=O)c1cccc(Cl)c1)N1CC(C)(C)C=N1 [compound 33, 3-Chloro-N-[(4,4-dimethyl-4,5-dihydro-pyrazol-1-yl)-ethylamino-methylene]-benzenesulfonamide]",15.8 nM,12.6 nM,,
CCN/C(=N\S(=O)(=O)c1cccc(Cl)c1)N1CCC(C)=N1 [compound 42],,,,Ki (5-HT6 receptor [1]; 5-HT6 pKi): 200 nM; 5-HT6 pA2 (5-HT6 receptor [2]; [5]): 6.9
CCN/C(=N\S(=O)(=O)/C=C/c1ccccc1)N1CC(CC)C=N1 (stereo not drawn) [compound 83],79.4 nM,63.1 nM,,
CCN/C(=N\S(=O)(=O)c1cccc(Cl)c1)N1N=C(C(C)C)CC1c1ccccc1 (stereo not drawn) [compound 151],200 nM,501 nM,,
CCC1CN(/C(N)=N/S(=O)(=O)c2ccc(Cl)s2)N=C1C (stereo not drawn) [compound 121],,,155 to 156 °C,
CC1=NN(/C(N)=N/S(=O)(=O)c2cccc(Cl)c2)CC1(C)C [compound 115],,,135 to 137 °C,
"CCN/C(=N\S(=O)(=O)c1c(Cl)nc2sccn12)N1CC(CC)C=N1 (single isomer, unassigned; (+)) [(+)-41]",,1.26 nM,,
"CCN/C(=N\S(=O)(=O)c1ccccc1Cl)N1CC(CC)C=N1 (stereo not drawn) [compound 2, 2-Chloro-N-[ethylamino-(4-ethyl-4,5-dihydro-pyrazol-1-yl)-methylene]-benzenesulfon-amide]",50.1 nM,3.16 nM,,
"CCN/C(=N\S(=O)(=O)c1cccc(Cl)c1)N1N=CC(CC)C1c1ccccc1 (single isomer, unassigned) [trans-(+)-153]",126 nM,,,
CCN/C(=N\S(=O)(=O)c1cc2ccccc2s1)N1CC(CC)C=N1 (stereo not drawn) [compound 89],5.01 nM,0.794 nM,,
CCN/C(=N\S(=O)(=O)c1cccc2ccccc12)N1CC(CC)C=N1 (stereo not drawn),,,79 to 80 °C,
CCN/C(=N\S(=O)(=O)c1ccccc1Cl)N1CCCC1 [reference compound],,,,Kb (5-HT6 receptor [2]): > 10000 nM
"CCC1C=NN(/C(N)=N/S(=O)(=O)c2c(Cl)nc3sccn23)C1 (single isomer, unassigned; (-)) [(−)-123]",,,176 to 178 °C,

Compound,Ki (5-HT6 receptor [1]; [3]),Kb (5-HT6 receptor [2]; [4]),melting point,also measured
CCN/C(=N\S(=O)(=O)c1ccc(Cl)cc1)N1CC(CC)C=N1 (stereo not drawn),,,84 to 86 °C,
N/C(=N\S(=O)(=O)c1ccc(Cl)s1)N1CC2(C=N1)CCCC2 [compound 107],,,184 °C,
CCC1C=NN(/C(=N/S(=O)(=O)c2ccccc2Cl)Nc2ccccc2)C1 (stereo not drawn) [compound 12],,,128 to 130 °C,
CCN/C(=N\S(=O)(=O)c1cccc(Cl)c1)N1N=CC(CC)C1c1ccccc1 (stereo not drawn) [compound 153],158 nM,,,
N/C(=N\S(=O)(=O)c1c(Cl)nc2sccn12)N1CC2(C=N1)CCCC2 [compound 131],,,174 to 177 °C,
CCC1CN(/C(=N/S(=O)(=O)c2cccc(Cl)c2)NC)N=C1C (stereo not drawn) [compound 109],,,155 to 156 °C,
CCN/C(=N\S(=O)(=O)c1cccc(Cl)c1)N1N=CCC1c1cccnc1 (stereo not drawn) [compound 145],31.6 nM,12.6 nM,,
CN/C(=N\S(=O)(=O)c1cccc(Cl)c1)N1CC2(C=N1)CCOCC2 [compound 160],79.4 nM,200 nM,,
CCN/C(=N\S(=O)(=O)c1cccs1)N1CC(CC)C=N1 (stereo not drawn) [compound 51],126 nM,200 nM,,
CCN/C(=N\S(=O)(=O)c1cccc(Cl)c1)N1CCC=N1 [compound 28],20 nM,20 nM,,5-HT6 pA2 (5-HT6 receptor [2]; [5]): 7.1
CCC1C=NN(/C(N)=N/S(=O)(=O)c2ccccc2Cl)C1 (stereo not drawn) [compound 3],,,161 to 163 °C,
CCC1C=NN(/C(=N/S(=O)(=O)c2ccccc2Cl)N(CC)CC)C1 (stereo not drawn) [compound 1],,,,Kb (5-HT6 receptor [2]): 316 nM
CN/C(=N\S(=O)(=O)c1c(Cl)nc2sccn12)N1CC2(C=N1)CCOCC2 [compound 163],251 nM,10 nM,,
CCN/C(=N\S(=O)(=O)c1cccc(Cl)c1)N1N=CCC1c1ccncc1 (stereo not drawn) [compound 148],501 nM,,,5-HT6 pA2 (5-HT6 receptor [2]; [5]): 6.9
CN/C(=N\S(=O)(=O)c1ccc(Cl)s1)N1CC2(C=N1)CCOCC2 [compound 166],100 nM,79.4 nM,,
CCN/C(=N\S(=O)(=O)c1cccc(Cl)c1)N1N=CCC1c1ccco1 (stereo not drawn) [compound 144],7.94 nM,,,5-HT6 pA2 (5-HT6 receptor [2]; [5]): 8.1

# Second part, led by results:
Ki (5-HT6 receptor [1]; [3]),Kb (5-HT6 receptor [2]; [4]),melting point,Compound,also measured
50.1 nM,,,"CCN/C(=N\S(=O)(=O)c1cccc(Cl)c1)N1N=CC(CC)C1c1ccccc1 (single isomer, unassigned) [cis(−)-153]",
10 nM,3.98 nM,,CCN/C(=N\S(=O)(=O)c1cccc(Cl)c1)N1N=CC2CN(C)CCC21 (stereo not drawn) [compound 154],
1260 nM,,,"CCN/C(=N\S(=O)(=O)c1cccc(Cl)c1)N1N=CC(CC)C1c1ccccc1 (single isomer, unassigned) [cis(+)-153]",
158 nM,,,CCN/C(=N\S(=O)(=O)c1cccc(Cl)c1)N1N=CC(C)C1c1ccccc1 (stereo not drawn) [compound 152],
63.1 nM,79.4 nM,,"CCN/C(=N\S(=O)(=O)c1cccc2nsnc12)N1CC(CC)C=N1 (stereo not drawn) [compound 78, Benzo[1,2,5]thiadiazole-4-sulfonic acid ethylamino-(4-ethyl-4,5-dihydro-pyrazol-1-yl)-methyleneamide]",
,,121 to 123 °C,CCC1CN(/C(N)=N/S(=O)(=O)c2cccc(Cl)c2)N=C1C (stereo not drawn) [compound 113],
,,115 to 116 °C,CCC1C=NN(/C(N)=N/S(=O)(=O)c2ccc(Cl)s2)C1 (stereo not drawn) [compound 105],
100 nM,,,CCN/C(=N\S(=O)(=O)c1ccc(N(C)C)cc1)N1CC(CC)C=N1 (stereo not drawn) [compound 174],
63.1 nM,31.6 nM,,N/C(=N\S(=O)(=O)c1ccc(Cl)s1)N1CC2(C=N1)CCOCC2 [compound 167],
316 nM,,,CCN/C(=N\S(=O)(=O)N(C)c1ccccc1)N1CC(CC)C=N1 (stereo not drawn) [compound 172],
,,131 to 138 °C,CCC1C=NN(/C(=N/S(=O)(=O)c2ccccc2Cl)NCC2CCNCC2)C1 (stereo not drawn) [compound 11],
200 nM,63.1 nM,,CCN/C(=N\S(=O)(=O)c1ccc(Cl)s1)N1CC(C)(C)C(C)=N1 [compound 112],
,,122 to 125 °C,CCN/C(=N\S(=O)(=O)c1ccc(N)cc1)N1CC(CC)C=N1 (stereo not drawn) [compound 134],
,,198 to 199 °C,CC1(C)C=NN(/C(N)=N/S(=O)(=O)c2c(Cl)nc3sccn23)C1 [compound 127],
25.1 nM,20 nM,,CCN/C(=N\S(=O)(=O)c1ccc(Cl)s1)N1CC2(C=N1)CCOCC2 [compound 165],
316 nM,794 nM,,CCN/C(=N\S(=O)(=O)c1cccc(Cl)c1)N1N=CCC1c1ccccn1 (stereo not drawn) [compound 147],
79.4 nM,50.1 nM,,CN/C(=N\S(=O)(=O)c1ccc(Cl)s1)N1CC(C)(C)C=N1 [compound 103],
200 nM,,,CCN/C(=N\S(=O)(=O)c1cccc(Cl)c1)N1CC(c2ccccc2)C(C)=N1 (stereo not drawn) [compound 140],

Ki (5-HT6 receptor [1]; [3]),Kb (5-HT6 receptor [2]; [4]),melting point,Compound,also measured
12.6 nM,31.6 nM,,CCN/C(=N\S(=O)(=O)c1cccc(Cl)c1)N1N=CCC1c1ccsc1 (stereo not drawn) [compound 149],
79.4 nM,100 nM,,N/C(=N\S(=O)(=O)c1cccc(Cl)c1)N1CC2(C=N1)CCOCC2 [compound 161],
,,94 to 95 °C,CCC1C=NN(/C(=N/S(=O)(=O)c2ccccc2Cl)N(C)C)C1 (stereo not drawn) [compound 5],
,,162 to 164 °C,CC1(C)C=NN(/C(N)=N/S(=O)(=O)c2ccc(Cl)s2)C1 [compound 102],
31.6 nM,31.6 nM,,CCN/C(=N\S(=O)(=O)c1cccc(Cl)c1)N1N=CCC1c1cccs1 (stereo not drawn) [compound 150],
,,60 to 61 °C,CCN/C(=N\S(=O)(=O)N(C)C)N1CC(CC)C=N1 (stereo not drawn) [compound 171],
63.1 nM,12.6 nM,,CCN/C(=N\S(=O)(=O)c1c(Cl)nc2sccn12)N1CC2(C=N1)CCOCC2 [compound 162],
,,149 to 150 °C,CN(C)/C(=N\S(=O)(=O)c1ccc(F)cc1)N1CCC(c2ccc(Cl)cc2)=N1 [compound 137],
79.4 nM,200 nM,,CCC1C=NN(/C(=N/S(=O)(=O)c2ccccc2Cl)NCc2ccccc2)C1 (stereo not drawn) [compound 13],
,,139 to 141 °C,CCN/C(=N\S(=O)(=O)c1c(Cl)nc2sccn12)N1CC(C)(C)C=N1 [compound 114],
,,124 to 126 °C,CCN/C(=N\S(=O)(=O)c1cccc(Cl)c1)N1N=CCC1c1ccccc1 (stereo not drawn) [compound 143],
,,141 to 142 °C,CCC1C=NN(/C(N)=N/S(=O)(=O)c2cccc(Cl)c2)C1 (stereo not drawn) [compound 29],
,,169 to 171 °C,CC1=NN(/C(N)=N/S(=O)(=O)c2c(Cl)nc3sccn23)CC1(C)C [compound 117],
,,91 to 93 °C,CCN/C(=N\S(=O)(=O)c1ccccc1Cl)N1CCC(CC)=N1,
6.31 nM,7.94 nM,,CCN/C(=N\S(=O)(=O)c1cccc(Cl)c1)N1CC2(C=N1)CCN(C)CC2 [compound 157],
50.1 nM,39.8 nM,,N/C(=N\S(=O)(=O)c1c(Cl)nc2sccn12)N1CC2(C=N1)CCOCC2 [compound 164],
251 nM,316 nM,,CCN/C(=N\S(=O)(=O)c1cccc(Cl)c1)N1CC(c2ccccc2)C=N1 (stereo not drawn) [compound 139],

# — US8722887B2, “Sulfonylpyrazole and sulfonylpyrazoline carboxamidine derivatives as 5-HT6 antagonists” (Abbvie Bahamas, Ltd., priority 2006, dated 2014)
